# Where a name gives a salt, the structure may show the parent alone. Read-outs that look alike come from different tables or passages of the source.
# Tests used:
# [1] = test system: PLA2 activity of D. russelii venom; test: Miniaturised 384-well colorimetric sPLA2 assay, D. russelii venom; type: biochemical, Daboia russelii; details: for mean inhibition between screen and rescreen / Percent inhibition (PLA2) Rescreen: 10 µM; for mean inhibition between screen and rescreen: D. russelii venom; for EC50: 2-fold dilutions 10 µM to 5 pM, n = 4; for Percentage of Inhibition: Table S1, strong hits, value used for ligand efficiency metrics; for venom PLA2 activity in presence of compound: interleaved validation plates, 10 µM compound; for venom PLA2 activity in presence of compound / Percent inhibition (PLA2) Original / Percent inhibition (PLA2) Rescreen: 20 ng/well D. russelii venom; for Percent inhibition (PLA2) Original: primary screen, 10 µM drug, single point, relative to varespladib (100%) and DMSO (0%); for Percent inhibition (PLA2) Rescreen: rescreen of library hits, average of rescreen (2 ≤ n ≤ 4)
# Method: Once hydrolysed, this substrate yields a free thiol group that interacts with 5,5′-dithio-bis-(2-nitrobenzoic acid) (DTNB), which is then converted into 2-nitro-5-thiobenzoic acid, causing a change in colour which is measurable at 405 nm. This conversion is measured kinetically and occurs at a linear rate until the substrate is exhausted, at which point the absorbance plateaus. Appropriate PLA2 concentrations are determined to fit within the linear range of the assay and a bee venom positive control is included with the kit. The assay is designed for 96-well plates and is quite costly at GBP£440/96 tests at the time of writing. We wanted to adapt and miniaturise this methodology for high-throughput screening of PLA2 activity and inhibition in 384-well plates to decrease cost and increase output, without compromising assay robustness.
# Prior to conducting drug library screens, it was important to assess whether any drift or edge effects occurred in our setup. […] These consisted of full rows of these compounds in a repeating pattern (e.g., DMSO was in rows A, E, I, M, buffer was in rows B, F, J, N, etc.) on a 384-well plate. The assay was conducted as previously described using 20 ng/well of D. russelii venom across the plate. This was repeated three times on different days. To determine PLA2 activity under each of these conditions, the slope of each reaction was calculated by dividing the difference in absorbance at 405 nm between the first two time points in the linear range (tn–t0) by time (in min) where tn was 2 min 41 s in this case. These values were then inputted into the following equation: A µmol/min×mL=slope×0.045/4.6×0.01 where A represents venom activity, 0.045 is a factor representing the total volume of the assay (45 µL), 4.6 is the extinction coefficient of DTNB in 384-well plates, and 0.01 represents the sample size of 10 µL. This activity is then converted into specific activity by dividing the overall activity to the amount of venom in the reaction in micrograms.
# Once in house this library was formatted as 11 × 384-well stock plates containing drugs at a concentration of 1 mM in DMSO. […] Assay-ready plates (ARPs) were made by transferring 0.5 µL from each well of the stock plates onto new 384-well plates, so that the layout of the ARP matched that of the stock plate. Venom was added at 10 µL per well (20 ng venom/well) across the plate, except for column 24 which received 10 µL of assay buffer. These latter wells containing control drugs and assay buffer served as the blank. The plates were incubated for 25 min at 37°C, then left to reach room temperature for 5 min. […] The data were analysed as above by calculating the slopes of all reactions on the plate. The average of the slopes of the blanks was then subtracted from each of these values, and specific activity calculated as described and expressed as µmol/min/mL/µg of venom.
# These experiments were conducted and analysed as above, with n = 4 repeats per compound.
# [2] = test system: PLA2 activity of D. russelii venom; test: as above; type: biochemical, Daboia russelii; details: re-sourced drugs, 10 µM, 30 ng venom, varespladib normalised as 100%
# [3] = parameters: method as in Cerdá et al., 2003; details: ref Cerdá et al., 2003; cited from earlier work
# [4] = test system: PLA2 activity of N. nigricollis venom; test: Miniaturised 384-well colorimetric sPLA2 assay, N. nigricollis venom; details: for % inhibition: N. nigricollis: re-sourced drugs, 10 µM, 5 ng venom, varespladib normalised as 100%
# Method: (§1) The final concentrations of DTNB and that of the substrate in the assay were 0.44 and 0.88 mM, respectively.
# (§2) Then, 10 µL of snake venom at a concentration appropriate for the venom being screened was added to the plates using the VIAFLO384 and the plates were sealed with adhesive plate seals (Greiner BioOne), spun down and incubated for 25 min at 37°C. To prevent the degradation of any potential photolabile compounds, the plates were wrapped in aluminium foil prior to the incubation step. The plates were then taken out of the incubator and left to acclimatise at room temperature for 5 min.
# (§3) To determine percentage inhibition relative to the positive and negative controls we applied the following formula: % inhibition= A− µ pos/µ neg− µ pos×100 where A represents specific activity as determined for each sample, and µ (pos) and µ (neg) represent the means of the specific activity in the positive and negative controls, respectively.
# (§4) Drugs were plated as before, starting at 10 µM followed by 2-fold dilutions down to 5 pM, with each dilution series plated in quadruplicate. The data were analysed and expressed as described above and the percentage PLA2 inhibition values were used to generate EC50s in Graphpad Prism 9 using a nonlinear regression to fit the dose-response inhibition curve.
# [5] = test system: PLA2 activity of C. durissus terrificus venom; test: Miniaturised 384-well colorimetric sPLA2 assay, C. durissus terrificus venom; details: for EC50: read-out: EC50 (nM) C. durissus terrificus, 2-fold dilutions 10 µM to 5 pM, n = 4; for % inhibition: C. durissus terrificus: re-sourced drugs, 10 µM, 12.5 ng venom, varespladib normalised as 100%
# Method: as §1, §2, §3, §4
# [6] = test system: PLA2 activity of N. naja venom; test: Miniaturised 384-well colorimetric sPLA2 assay, N. naja venom; details: re-sourced drugs, 10 µM, 40 ng venom, varespladib normalised as 100%
# Method: as §1, §2, §3
# [7] = test system: PLA2 activity of C. atrox venom; test: Miniaturised 384-well colorimetric sPLA2 assay, C. atrox venom; details: re-sourced drugs, 10 µM, 30 ng venom, varespladib normalised as 100%
# Method: as §1, §2, §3
# [8] = test system: PLA2 activity of B. arietans venom; test: Miniaturised 384-well colorimetric sPLA2 assay, B. arietans venom; details: re-sourced drugs, 10 µM, 40 ng venom, varespladib normalised as 100%
# Method: as §1, §2, §3
# secreted PLA2 = test system: secreted PLA2; parameters: method as in Yu et al., 1997; details: ref Yu et al., 1997; cited from earlier work
# [9] = parameters: method as in Liu et al., 1987; Coutinho et al., 2000; details: dose of up to 20 mg/day, trialled in the 1970s in China; ref Liu et al., 1987; Coutinho et al., 2000; cited from earlier work
# [10] = parameters: method as in Beaudoin, 1985; details: ref Beaudoin, 1985; cited from earlier work
# [11] = test system: non-small cell lung carcinoma cells; parameters: method as in Wang et al., 2018; details: ref Wang et al., 2018; cited from earlier work
# [12] = test system: PLA2 activity of C. durissus terrificus venom; parameters: method as in Cotrim et al., 2011; details: ref Cotrim et al., 2011; cited from earlier work
# [13] = read-out: EC50 (nM) D. russelii
Compound,mean inhibition between screen and rescreen [1],% inhibition: D. russelii [2],EC50 [5],% inhibition: N naja [6],% inhibition: C. atrox [7],% inhibition: B. arietans [8],% inhibition: N. nigricollis [4],% inhibition: C. durissus terrificus [5],other results
CC(=O)O.Cc1cc2c(C(C)C)c(O)c(O)c(C=O)c2c(O)c1-c1c(C)cc2c(C(C)C)c(O)c(O)c(C=O)c2c1O,89.2%,,,,,,,,
"O=C1O[C@H]2[C@@H]3OC(=O)c4cc(O)c(O)c(O)c4-c4c(O)c(O)c5oc(=O)c6c(c(O)c(O)c7oc(=O)c4c5c76)-c4c(cc(O)c(O)c4O)C(=O)OC[C@H]3OC(O)[C@@H]2OC(=O)c2cc(O)c(O)c(O)c2-c2c1cc(O)c(O)c2O (mixture of isomers) [Punicalagin, punicalagin]",71.7%,above 72%,167 nM,,,,,,"EC50 [1, 13]: 559 nM; Percentage of Inhibition [1]: 83.82; toxicity at high doses in rodents [3]: non-toxic; EC50 ([4]; read-out: EC50 (nM) N. nigricollis, 2-fold dilutions 10 µM to 5 pM, n = 4): 270 nM"
CC1(C)C2CCC1(C)C(O)C2 (racemic) [DL-Borneol],95.1%,did not re-test as a hit,,did not re-test as a hit,did not re-test as a hit,did not re-test as a hit,did not re-test as a hit,did not re-test as a hit,
Cc1cc2c(C(C)C)c(O)c(O)c(C=O)c2c(O)c1-c1c(C)cc2c(C(C)C)c(O)c(O)c(C=O)c2c1O [Gossypol],76.6%,,69.1 nM,30%,,,64%,,"EC50 [1, 13]: 94.1 nM; inhibition of secreted PLA2 activity (secreted PLA2): reported inhibition of secreted PLA2 activity; efficacy and tolerability as male contraceptive [9]: efficacious and well tolerated; teratogenicity [10]: non-teratogenic; proliferation in non-small cell lung carcinoma cells [11]: inhibited proliferation"
"CNC(=O)[C@@H](NC(=O)[C@H](CC(C)C)[C@H](O)C(=O)NO)C(C)(C)C [Marimastat, marimastat]",,,,,,,,,venom PLA2 activity in presence of compound [1]: 6–8 μmol/min/mL/µg venom
"CC(=O)Oc1cc2c(s1)CCN(C(C(=O)C1CC1)c1ccccc1F)C2 (stereo not drawn) [Prasugrel (hydrochloride), prasugrel hydrochloride]",83.9%,above 72%,,,,,,,Percentage of Inhibition [1]: 89.92
"O=c1c(O)c(-c2ccc(O)c(O)c2)oc2cc(O)cc(O)c12 [Quercetin (dihydrate), quercetin dihydrate]",,42%,,< 15%,< 15%,< 15%,< 15%,~65%,Percent inhibition (PLA2) Original [1]: > 70%; Percent inhibition (PLA2) Rescreen [1]: failed to inhibit; inhibition of enzymatic PLA2s from C. durissus terrificus venom [12]: previously shown to inhibit
O=C(/C=C/c1ccc(O)c(O)c1/C=C/c1ccc(O)c(O)c1)O[C@H](Cc1ccc(O)c(O)c1)C(=O)O [Salvianolic acid A],,,,,,,,,Percent inhibition (PLA2) Rescreen [1]: failed to reproducibly inhibit
CCc1c(C(=O)C(N)=O)c2c(OCC(=O)O)cccc2n1Cc1ccccc1 [Varespladib],,reducing readings to control levels,5.5 nM,reducing readings to control levels,reducing readings to control levels,reducing readings to control levels,reducing readings to control levels,reducing readings to control levels,"inhibition of venom PLA2 activity (reaction rate) ([1]; 10 µM varespladib, viper venom, Figure 1B): inhibited venom activity to baseline readings; EC50 ([1]; text value in pM, read-out: EC50 against D. russelii venom): 0.5 nM; venom PLA2 activity in presence of compound [1]: dropped sharply; Percent inhibition (PLA2) Original [1]: > 99%; inhibition of venom PLA2 activity (reaction rate) ([4]; 10 µM varespladib, elapid venom, Figure 1B): inhibited venom activity to baseline readings"
Tannic acid,92.1%,,,,,,,,
